Reference: patent publication US9212178B2, “Substituted pyrimidine compounds and their use as SYK inhibitors” (Genosco, priority 2013, dated 2015)
Read-outs that look alike come from different tables or passages of the source.

Columns and labels:
full-length human SYK = full-length human SYK (Homo sapiens (Human), UniProt P43405); assay: Inhibition of enzymatic SYK kinase activity (LANCE Ulight TK peptide); format: biochemical; details: ATP at Km (15 uM), 30 min pre-incubation
Procedure: Compounds of the present invention were assayed to measure their capacity to inhibit a spleen tyrosine kinase (SYK).
Compounds of the invention were initially diluted to 10 mM in 100% DMSO (CALBIOCHEM™) for storage and made into kinase buffer solution to create a compound concentration ranging from 1 uM and 10 uM. Serial dilutions of compounds of the invention were dispensed into a 96-well plate (GREINER BIOSCIENCES™) at 6 μL each. Purified full-length human SYK (CARNA BIOSCIENCES™) were diluted in kinase buffer and added to the compound solutions and pre-incubated for 30 minutes at room temperature. […] The reaction mixture was incubated for 1 hour. Following the incubation, the stop solution made with EDTA, water, and Lance detection buffer ([…]™) was added (12 μL each) to stop phosphorylation.

THP-1 cells = assay: SYK-dependent TNF-α release assay (IgG stimulation), ELISA; format: cell-based; details: THP-1 cells on human IgG-coated plate, 18 hours; read-out: TNF-α release inhibition, IgG stimulation IC50
Procedure: In order to address cellular potency of Compounds of Formula (I), TNF-a production was measured on treatment of a series of concentration of SYK inhibitor in THP-1 cells.
For SYK-dependent TNF-α release assay (i.e., via IgG stimulation), THP-1 cells derived from human monocytic cells were obtained from the American Type Culture Collection (ATCC, Manassas, Va.). This cell line was maintained with a Roswell Park Memorial Institute (RPMI) medium (GIBCO) containing 10% fetal bovine serum (FBS; GIBCO) and 0.05 mM solution of 2-mercaptoethanol. The THP-1 cells were seeded at 1×10^5 cells/100 μL/well into human IgG (10 ng/well, INVITROGEN)-coated 96 well culture plate, and serially diluted compound was then added. After an 18 hours of incubation period at 37° C., supernatants were collected for the determination of the TNF-α level by enzyme-linked immunosorbent assay (ELISA), and the remaining cells were subjected to an MTT (yellow tetrazolium salt) assay to determine the cytotoxic effects of the compound. The IC50 value of the test compound was calculated at Gradpad Prism 5 unless otherwise specified.

[1] = tested on: Human peripheral CD19+ B cells; assay: Cellular SLE model: immunoglobulin production in human peripheral B cells stimulated via TLR9 (ODN2006); format: cell-based; details: for IC50: human B cell, ODN2006 and IL-2, 6 days; for Inhibition of IgG and IgM production (in words): TLR9 stimulated by ODN2006 and IFNα
Description: Systemic lupus erythematosus (SLE) is a chronic inflammatory autoimmune disease and can affect several organs and systems. It is characterized by high production of autoantibodies against nuclear compounds. TLR7/8/9 are responsible for nucleic acid recognition and they trigger proinflammatory responses through activation of […] and Type I IFN production, making a bridge between the innate and the adaptive immune systems. TLR9 signaling pathway was adopted for cellular SLE model using human peripheral B cells to test potency of SYK inhibitor of Formula (I).
Human peripheral CD19+ B cells from an adult healthy donor were purchased from Sanguine Biosciences (Sherman Oaks, Calif.). B cells were cultured in 96-well plates with complete RPMI 1640 medium (Corning, Tewksbury, Mass.) supplemented with 10% heat-inactivated FBS (Life Technologies, Grand Island, N.Y.) and penicillin/streptomycin (Corning). B cells were stimulated with 1 μM ODN2006 (InvivoGen, San Diego, Calif.) and 20 ng/ml IFNα (PBL Assay Science, Piscataway, N.J.) for 3 days for toll-like receptor-9 (TLR-9)-mediated B cell growth. To differentiate naïve B cells into plasma cells, peripheral B cells were differentiated with 50 nM ODN2006 and 10 ng/ml IL-2 in a presence of various concentrations of SYK inhibitors for 6 days. Culture supernatants were collected and IgM and IgG production was measured using human IgM or IgG ELISA kit (BioLegend).

OCI-LY1 = assay: DLBCL cell proliferation, ATPLite assay; format: cell-based, human; details: for IC50: OCI-LY1, 72 hours, read-out: Inhibition of proliferation IC50; for Inhibition of proliferation (in words): OCI-LY1
Description: (§1) Several lines of evidence support the role of B cell receptor (BCR)-mediated survival signals in certain B cell malignancies such as non-Hodgkin lymphomas (NHL) including diffuse large B cell lymphoma (DLBCL). B cell receptor (BCR) signaling pathway components represent promising treatment targets in diffuse large B cell lymphoma (DLBCL) and additional B cell tumors. In order to address whether SYK inhibitor of Compounds of Formula (I), cellular viability of diffuse large B cell lymphoma (DLBCL) cells was measured on treatment of a series of concentration of SYK inhibitor.
(§2) The DLBCL cells, SUDHL4, SUDHL6 and OCI-LY1 […] were obtained from the American Type Culture Collection (ATCC, Manassas, Va., USA) or DSMZ (Braunschweig, Germany). […] The SUDHL4, SUDHL6 and OCI-LY1 cells were seeded at 1×10^5 cells/100 μL/well into 96 well culture plate, and serially diluted compound was then added. After an 72 hours of incubation period at 37° C., cells were subjected to an ATPLite assay (PerkinElmer) to determine the cytotoxic effects of the compound. The IC50 value of the test compound was calculated at Gradpad Prism 5 unless otherwise specified.

SUDHL4 = assay: DLBCL cell proliferation, ATPLite assay; format: cell-based, human; details: for IC50: SUDHL4, 72 hours, read-out: Inhibition of proliferation IC50; for Inhibition of proliferation (in words): SUDHL4
Description: as §1, §2

SUDHL6 = assay: DLBCL cell proliferation, ATPLite assay; format: cell-based, human; details: for IC50: SUDHL6, 72 hours, read-out: Inhibition of proliferation IC50; for Inhibition of proliferation (in words): SUDHL6
Description: as §1, §2

[2] = tested on: Collagen-induced arthritis in DBA/1J mice; assay: Collagen-induced arthritis (CIA) mouse model, macroscopic paw scoring; format: in vivo; details: for CIA index (arthritic score of test group / vehicle group x 100): 30 mg/kg/day once daily oral gavage, vehicle = 100.0
Procedure: CIA mouse model was induced in DBA/1J mice (Japan Charles River Breeding Laboratories, Kanagawa, Japan) with 5 to 6 weeks of age. Animals were maintained at a temperature of 20±5° C. and a relative humidity of 40˜60%.
Bovine type II collagen (CII, 2 mg/ml dissolved in 0.05 M acetic acid, Chondrex, Redmond, Wash.) was emulsified in equal volumes of Freund's complete adjuvant (4 mg/ml of Mycobacterium tuberculosis strain H37Ra; Chondrex, Redmond, Wash.). On day 0, mice were immunized intradermally at the base of the tail with 100 μg bovine type II collagen emulsified in Freund's complete adjuvant. On day 21, all mice were boosted with an intraperitoneal injection of 100 μg type II collagen.
These compounds were dissolved in NMP/20% cyclodextrin/PEG400 5:45:50 solution and filtered by […] membrane filter. All the test substances were administered once daily at 30 mg/kg/day by oral gavage for 3 weeks.
The gradual onset of arthritis usually starts approximately 3 weeks after initial immunization. The progression of CIA was evaluated by the macroscopic scoring of paws at intervals of 3 days. The edema and swelling of each paw was scored visually as was described previously, using a scale of 0-4, where 0=no visible abnormalities, 1=mild redness or swelling of the wrist or up to three inflamed digits, 2=more than three inflamed digits or moderate redness and swelling of the ankle or wrist, 3=severe ankle and wrist inflammation, 4=extensive ankle and wrist inflammation including all digits. Therefore, the score of each mouse was calculated for the four limbs (maximum total score of 16 for each mouse) (Courtenay J S, Dallman M J, Dayan A D, et al., Immunisation against heterologous type II collagen induces arthritis in mice, Nature, 1980, 283, 666-668)
Arthritis was considered to be present if the score was >2. The blind scoring was performed by four independent observers. In this study, data was calculated by following equation. […] Results

[3] = 144 h, read-out: Inhibition of immunoglobulin production, IgG IC50
[4] = 144 h, read-out: Inhibition of immunoglobulin production, IgM IC50

Cn1cc(C(=O)C2CC2)c2cc(Nc3nccc(-n4cc(CN5C[C@H](O)CO5)cn4)n3)ccc21 [Compound 30, (S)-cyclopropyl(5-(4-(4-((4-hydroxyisoxazolidin-2-yl)methyl)-1H-pyrazol-1-yl)pyrimidin-2-ylamino)-1-methyl-1H-indol-3-yl)methanone]
IC50 (full-length human SYK): 2.46 nM | IC50 (THP-1 cells): 17 nM | IC50 [1, 3]: 188 nM | IC50 [1, 4]: 90 nM | Inhibition of IgG and IgM production (in words) [1]: potent inhibition | IC50 (OCI-LY1; Homo sapiens): 2300 nM | Inhibition of proliferation (in words) (OCI-LY1): potent inhibition | IC50 (SUDHL4; Homo sapiens, SU-DHL-4): 952 nM | Inhibition of proliferation (in words) (SUDHL4): potent inhibition | IC50 (SUDHL6; Homo sapiens, SU-DHL-6): 929 nM | Inhibition of proliferation (in words) (SUDHL6): potent inhibition

CCn1cc(C(=O)C2CC2)c2cc(Nc3nccc(-n4cc(CN5C[C@H](O)CO5)c(C)n4)n3)ccc21 [Compound 6, (S)-cyclopropyl(1-ethyl-5-(4-(4-((4-hydroxyisoxazolidin-2-yl)methyl)-3-methyl-1H-pyrazol-1-yl)pyrimidin-2-ylamino)-1H-indol-3-yl)methanone]
IC50 (full-length human SYK): 4.69 nM | IC50 (THP-1 cells): 57 nM | CIA index (arthritic score of test group / vehicle group x 100) ([2]; day 4): 0.0 ± 0.0% | CIA index (arthritic score of test group / vehicle group x 100) ([2]; day 7): 10.9 ± 8.9% | CIA index (arthritic score of test group / vehicle group x 100) ([2]; day 10): 32.3 ± 11.5% | CIA index (arthritic score of test group / vehicle group x 100) ([2]; day 13): 45.3 ± 10.5% | CIA index (arthritic score of test group / vehicle group x 100) ([2]; day 17): 53.3 ± 7.4% | CIA index (arthritic score of test group / vehicle group x 100) ([2]; day 19): 63.4 ± 4.0%

COc1cc(Nc2ncc(F)c(Nc3ccc4c(n3)NC(=O)C(C)(C)O4)n2)cc(OC)c1OC [Compound R406, reference compound]
IC50 (THP-1 cells): 217 nM | IC50 ([1]; read-out: Inhibition of immunoglobulin production, IgG IC50): 369 nM | IC50 ([1]; read-out: Inhibition of immunoglobulin production, IgM IC50): 180 nM | IC50 (OCI-LY1): 3890 nM | IC50 (SUDHL4): 3670 nM | IC50 (SUDHL6): 3230 nM

COc1cc(Nc2ncc(F)c(Nc3ccc4c(n3)N(COP(=O)(O)O)C(=O)C(C)(C)O4)n2)cc(OC)c1OC [Compound R788, reference compound]
CIA index (arthritic score of test group / vehicle group x 100) ([2]; day 4): 36.7 ± 22.7% | CIA index (arthritic score of test group / vehicle group x 100) ([2]; day 7): 82.2 ± 45.2% | CIA index (arthritic score of test group / vehicle group x 100) ([2]; day 10): 80.3 ± 27.3% | CIA index (arthritic score of test group / vehicle group x 100) ([2]; day 13): 97.8 ± 25.0% | CIA index (arthritic score of test group / vehicle group x 100) ([2]; day 17): 73.3 ± 11.2% | CIA index (arthritic score of test group / vehicle group x 100) ([2]; day 19): 72.1 ± 11.2%

Cc1nn(-c2ccnc(Nc3ccc4c(c3)c(C(=O)C3CC3)cn4C)n2)cc1CN1C[C@H](O)CO1 [Compound 1, (S)-cyclopropyl(5-(4-(4-((4-hydroxyisoxazolidin-2-yl)methyl)-3-methyl-1H-pyrazol-1-yl)pyrimidin-2-ylamino)-1-methyl-1H-indol-3-yl)methanone]
IC50 (THP-1 cells): 52 nM | IC50 [1, 3]: 296 nM | IC50 [1, 4]: 232 nM | Inhibition of IgG and IgM production (in words) [1]: potent inhibition | Inhibition in arthritis phenotype indicated by CIA, compared with R788 (in words) ([2]; 30 mg/kg/day oral, versus R788): stronger inhibition | CIA index (arthritic score of test group / vehicle group x 100) ([2]; day 4): 3.0 ± 2.8% | CIA index (arthritic score of test group / vehicle group x 100) ([2]; day 7): 24.0 ± 9.2% | CIA index (arthritic score of test group / vehicle group x 100) ([2]; day 10): 40.1 ± 13.8% | CIA index (arthritic score of test group / vehicle group x 100) ([2]; day 13): 36.2 ± 12.0% | CIA index (arthritic score of test group / vehicle group x 100) ([2]; day 17): 33.5 ± 10.5% | CIA index (arthritic score of test group / vehicle group x 100) ([2]; day 19): 33.6 ± 10.4% | IC50 (OCI-LY1; Homo sapiens): 1830 nM | Inhibition of proliferation (in words) (OCI-LY1): potent inhibition | IC50 (SUDHL4; Homo sapiens, SU-DHL-4): 1070 nM | Inhibition of proliferation (in words) (SUDHL4): potent inhibition | IC50 (SUDHL6; Homo sapiens, SU-DHL-6): 2840 nM | Inhibition of proliferation (in words) (SUDHL6): potent inhibition

CC(=O)c1cn(C)c2ccc(Nc3nccc(-n4cc(CN5C[C@H](O)CO5)c(C)n4)n3)cc12 [Compound 9, (S)-1-(5-(4-(4-((4-hydroxyisoxazolidin-2-yl)methyl)-3-methyl-1H-pyrazol-1-yl)pyrimidin-2-ylamino)-1-methyl-1H-indol-3-yl)ethanone]
IC50 (full-length human SYK): 13.3 nM | IC50 (THP-1 cells): 229 nM
